Source: ChEMBL document CHEMBL4024754, “Development of Potent, Protease-Resistant Agonists of the Parathyroid Hormone Receptor with Broad β Residue Distribution” (J Med Chem, 2017)
Numbered stars: 1 amine (or outer) side, 2 acyl side, 3 side chain; on linkers, the order of the positions; unused ones are H or OH. Square brackets hold non-standard residues; d marks the D form. Peptide text beside a SMILES is read from it. * marks the point of attachment. NH(1S,2S-2-CONH2-cPent) = NC(=O)[C@H]1CCC[C@@H]1N*; β3hW = N[C@H](CC(=O)O)Cc1c[nH]c2ccccc12; ACPC(1S,2S) = N[C@H]1CCC[C@@H]1C(=O)*; X1 = O=C([C@H]1CCC[C@@H]1N[*:1])[*:2]; X2 = O=C([C@H]1CNC[C@@H]1N[*:1])[*:2]; hArg = N=C(N)NCCCC[C@H](N)C(=O)O; β3hE = N[C@@H](CCC(=O)O)CC(=O)O; β3hF = N[C@H](CC(=O)O)Cc1ccccc1; β3hK = NCCCC[C@H](N)CC(=O)O; β3hM = CSCC[C@H](N)CC(=O)O; β3hD = NC(CC(=O)O)CC(=O)O; Aib = CC(C)(N)C(=O)O

How the values were obtained:
[1] = biological target: T1, Parathyroid hormone/parathyroid hormone-related peptide receptor (Homo sapiens) (UniProt Q03431); experiment: Agonist activity at human PTH1 receptor expressed in human GP2.3 cells assessed as induction of cAMP after 12 to 20 mins by luciferase reporter gene assay relative to PTH(1 to 34 residues)-NH2; format: functional, cell-based
T1 sequence (whole entry): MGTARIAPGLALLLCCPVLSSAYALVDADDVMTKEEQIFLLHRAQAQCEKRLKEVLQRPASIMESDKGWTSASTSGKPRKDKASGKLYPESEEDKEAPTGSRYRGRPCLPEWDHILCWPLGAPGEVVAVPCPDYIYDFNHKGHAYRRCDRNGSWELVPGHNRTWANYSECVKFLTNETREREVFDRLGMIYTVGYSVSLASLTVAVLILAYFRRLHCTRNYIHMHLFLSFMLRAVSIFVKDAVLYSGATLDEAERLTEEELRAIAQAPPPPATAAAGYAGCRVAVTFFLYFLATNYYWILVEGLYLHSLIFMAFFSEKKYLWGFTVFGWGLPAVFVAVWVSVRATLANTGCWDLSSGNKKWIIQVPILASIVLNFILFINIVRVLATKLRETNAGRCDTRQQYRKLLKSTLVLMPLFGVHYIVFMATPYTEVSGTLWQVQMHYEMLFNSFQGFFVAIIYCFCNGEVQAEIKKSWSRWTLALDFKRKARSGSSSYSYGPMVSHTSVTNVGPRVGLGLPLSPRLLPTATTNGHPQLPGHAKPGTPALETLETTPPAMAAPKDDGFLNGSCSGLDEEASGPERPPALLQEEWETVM

[2] = biological target: T2, Parathyroid hormone/parathyroid hormone-related peptide receptor (Homo sapiens, UniProt Q03431); experiment: Agonist activity at human PTH1 receptor expressed in human GP2.3 cells assessed as induction of cAMP after 12 to 20 mins by luciferase reporter gene assay; format: functional, cell-based; conditions: read-out: EC50
T2 sequence (Q03431 whole entry): T1 sequence (whole entry)

Structure (SMILES): CC[C@H](C)[C@H](NC(=O)[C@H](CCC(=O)O)NC(=O)[C@H](CO)NC(=O)[C@@H](NC(=O)[C@H]1CCC[C@@H]1N)C(C)C)C(=O)N[C@@H](CCC(N)=O)C(=O)N[C@H]1CCC[C@@H]1C(=O)N[C@@H](CCSC)C(=O)N[C@@H](Cc1cnc[nH]1)C(=O)N[C@@H](CC(N)=O)C(=O)N[C@@H](CC(C)C)C(=O)NCC(=O)N[C@@H](CCCCN)C(=O)N[C@H](CC(=O)N[C@@H](CC(C)C)C(=O)N[C@@H](CC(N)=O)C(=O)N[C@@H](CO)C(=O)N[C@@H](CCSC)CC(=O)N[C@@H](CCC(=O)O)C(=O)N[C@@H](CCCNC(=N)N)C(=O)N[C@H](C(=O)N[C@@H](CCC(=O)O)CC(=O)N[C@@H](Cc1c[nH]c2ccccc12)C(=O)N[C@@H](CC(C)C)C(=O)N[C@@H](CCCNC(=N)N)C(=O)N[C@@H](CCCCN)CC(=O)N[C@@H](CCCCN)C(=O)N[C@@H](CC(C)C)C(=O)N[C@@H](CCC(N)=O)C(=O)N[C@@H](CC(=O)O)CC(=O)N[C@H](C(=O)N[C@@H](Cc1cnc[nH]1)C(=O)N[C@@H](CC(N)=O)C(=O)N[C@H](CC(N)=O)Cc1ccccc1)C(C)C)C(C)C)Cc1c[nH]c2ccccc12 ({ACPC(1S,2S)}-VSEIQ[X1]MHNLGK[β3hW]LNS[β3hM]ERV[β3hE]WLR[β3hK]KLQ[β3hD]VHN[β3hF]-NH2)
- fold change (FC) [1]: 22.6
- EC50 [2]: 1.84 nM

Structure (SMILES): CC[C@H](C)[C@H](NC(=O)[C@H](CCC(=O)O)NC(=O)C(C)(C)NC(=O)[C@@H](NC(=O)[C@H]1CCC[C@@H]1N)C(C)C)C(=O)N[C@@H](CCC(N)=O)C(=O)N[C@H]1CCC[C@@H]1C(=O)N[C@@H](CCSC)C(=O)N[C@@H](Cc1cnc[nH]1)C(=O)N[C@@H](CCC(N)=O)C(=O)N[C@@H](CCCCNC(=N)N)C(=O)N[C@@H](C)C(=O)N[C@@H](CCCCN)C(=O)N[C@H]1CCC[C@@H]1C(=O)N[C@@H](CC(C)C)C(=O)N[C@@H](CC(N)=O)C(=O)N[C@@H](CO)C(=O)N[C@H]1CCC[C@@H]1C(=O)N[C@@H](CCCNC(=N)N)C(=O)N[C@@H](CCCNC(=N)N)C(=O)N[C@H](C(=O)N[C@H]1CNC[C@@H]1C(=O)N[C@@H](Cc1c[nH]c2ccccc12)C(=O)N[C@@H](CC(C)C)C(=O)N[C@@H](CCCNC(=N)N)C(=O)N[C@H]1CNC[C@@H]1C(=O)N[C@@H](CCCCN)C(=O)N[C@@H](CC(C)C)C(=O)N[C@@H](CCC(N)=O)C(=O)N[C@H]1CCC[C@@H]1C(=O)N[C@H](C(=O)N[C@@H](Cc1cnc[nH]1)C(=O)N[C@@H](CC(N)=O)C(=O)N[C@H]1CCC[C@@H]1C(N)=O)C(C)C)C(C)C ({ACPC(1S,2S)}-V[Aib]EIQ[X1]MHQ[hArg]AK[X1]LNS[X1]RRV[X2]WLR[X2]KLQ[X1]VHN-{NH(1S,2S-2-CONH2-cPent)})
- fold change (FC) [1]: 22
- EC50 [2]: 1.8 nM

Structure (SMILES): CC[C@H](C)[C@H](NC(=O)C[C@H](CO)NC(=O)[C@H](CCCCN)NC(=O)CNC(=O)[C@H](CCCCN)NC(=O)[C@H](CC(=O)O)NC(=O)[C@H](Cc1cnc[nH]1)NC(=O)[C@H](CC(C)C)NC(=O)[C@H](CC(C)C)NC(=O)[C@H](CCC(N)=O)NC(=O)[C@H](Cc1cnc[nH]1)NC(=O)[C@H](CCC(=O)O)NC(=O)[C@H](CO)NC(=O)[C@@H](NC(=O)[C@H](C)N)C(C)C)C(=O)N[C@@H](CCC(N)=O)C(=O)N[C@@H](CC(=O)O)C(=O)N[C@H](CC(=O)N[C@@H](CCCNC(=N)N)C(=O)N[C@@H](CCCNC(=N)N)C(=O)N[C@@H](CCCNC(=N)N)C(=O)N[C@@H](CCC(=O)O)CC(=O)N[C@@H](CC(C)C)C(=O)N[C@@H](CC(C)C)C(=O)N[C@@H](CCC(=O)O)C(=O)N[C@@H](CCCCN)CC(=O)N[C@@H](CC(C)C)C(=O)N[C@@H](CC(C)C)C(=O)NC(C)(C)C(=O)N[C@@H](CCCCN)CC(=O)N[C@@H](CC(C)C)C(=O)N[C@@H](Cc1cnc[nH]1)C(=O)N[C@H](C(=O)N[C@@H](C)CC(N)=O)[C@@H](C)O)CC(C)C
- fold change (FC) [1]: 60.4

Structure (SMILES): CSCC[C@@H](CC(=O)N[C@@H](CCC(=O)O)C(=O)N[C@@H](CCCNC(=N)N)C(=O)N[C@H](C(=O)N[C@@H](CCC(=O)O)CC(=O)N[C@@H](Cc1c[nH]c2ccccc12)C(=O)N[C@@H](CC(C)C)C(=O)N[C@@H](CCCNC(=N)N)C(=O)N[C@@H](CCCCN)CC(=O)N[C@@H](CCCCN)C(=O)N[C@@H](CC(C)C)C(=O)N[C@@H](CCC(N)=O)C(=O)N[C@@H](CC(=O)O)CC(=O)N[C@H](C(=O)N[C@@H](Cc1cnc[nH]1)C(=O)N[C@@H](CC(N)=O)C(=O)N[C@H](CC(N)=O)Cc1ccccc1)C(C)C)C(C)C)NC(=O)[C@H](CO)NC(=O)[C@H](CC(N)=O)NC(=O)[C@H](CC(C)C)NC(=O)C[C@H](Cc1c[nH]c2ccccc12)NC(=O)[C@H](CCCCN)NC(=O)CNC(=O)[C@H](CC(C)C)NC(=O)[C@H](CC(N)=O)NC(=O)[C@H](Cc1cnc[nH]1)NC(=O)[C@H](CCSC)NC(=O)[C@H]1CCC[C@@H]1NC(=O)[C@H](CCC(N)=O)NC(=O)[C@H]1CCC[C@@H]1NC(=O)[C@H](CCC(=O)O)NC(=O)[C@H](CO)NC(=O)[C@@H](NC(=O)[C@H]1CCC[C@@H]1N)C(C)C ({ACPC(1S,2S)}-VSE[X1]Q[X1]MHNLGK[β3hW]LNS[β3hM]ERV[β3hE]WLR[β3hK]KLQ[β3hD]VHN[β3hF]-NH2)
- fold change (FC) [1]: 2050
- EC50 [2]: 167 nM

Structure (SMILES): CC[C@H](C)[C@H](NC(=O)[C@H]1CCC[C@@H]1NC(=O)[C@H](CCCCN)NC(=O)CNC(=O)[C@H](CCCCN)NC(=O)[C@H](CC(=O)O)NC(=O)[C@H](Cc1cnc[nH]1)NC(=O)[C@H](CC(C)C)NC(=O)[C@H](CC(C)C)NC(=O)[C@H](CCC(N)=O)NC(=O)[C@H](Cc1cnc[nH]1)NC(=O)[C@H](CCC(=O)O)NC(=O)[C@H](CO)NC(=O)[C@@H](NC(=O)[C@H](C)N)C(C)C)C(=O)N[C@@H](CCC(N)=O)C(=O)N[C@@H](CC(=O)O)C(=O)N[C@H]1CCC[C@@H]1C(=O)N[C@@H](CCCNC(=N)N)C(=O)N[C@@H](CCCNC(=N)N)C(=O)N[C@@H](CCCNC(=N)N)C(=O)N[C@H]1CNC[C@@H]1C(=O)N[C@@H](CC(C)C)C(=O)N[C@@H](CC(C)C)C(=O)N[C@@H](CCC(=O)O)C(=O)N[C@H]1CNC[C@@H]1C(=O)N[C@@H](CC(C)C)C(=O)N[C@@H](CC(C)C)C(=O)NC(C)(C)C(=O)N[C@H]1CCC[C@@H]1C(=O)N[C@@H](CC(C)C)C(=O)N[C@@H](Cc1cnc[nH]1)C(=O)N[C@H](C(=O)N[C@H]1CCC[C@@H]1C(N)=O)[C@@H](C)O (H-AVSEHQLLHDKGK[X1]IQD[X1]RRR[X2]LLE[X2]LL[Aib][X1]LHT-{NH(1S,2S-2-CONH2-cPent)})
- fold change (FC) [1]: 2.6

Structure (SMILES): CSCC[C@H](NC(=O)[C@H]1CCC[C@@H]1NC(=O)[C@H](CCC(N)=O)NC(=O)[C@H]1CCC[C@@H]1NC(=O)[C@H](CCC(=O)O)NC(=O)[C@H](CO)NC(=O)[C@@H](NC(=O)[C@H]1CCC[C@@H]1N)C(C)C)C(=O)N[C@@H](Cc1cnc[nH]1)C(=O)N[C@@H](CC(N)=O)C(=O)N[C@@H](CC(C)C)C(=O)NCC(=O)N[C@@H](CCCCN)C(=O)N[C@H]1CCC[C@@H]1C(=O)N[C@@H](CC(C)C)C(=O)N[C@@H](CC(N)=O)C(=O)N[C@@H](CO)C(=O)N[C@H]1CCC[C@@H]1C(=O)N[C@@H](CCC(=O)O)C(=O)N[C@@H](CCCNC(=N)N)C(=O)N[C@H](C(=O)N[C@H]1CNC[C@@H]1C(=O)N[C@@H](Cc1c[nH]c2ccccc12)C(=O)N[C@@H](CC(C)C)C(=O)N[C@@H](CCCNC(=N)N)C(=O)N[C@H]1CNC[C@@H]1C(=O)N[C@@H](CCCCN)C(=O)N[C@@H](CC(C)C)C(=O)N[C@@H](CCC(N)=O)C(=O)N[C@H]1CCC[C@@H]1C(=O)N[C@H](C(=O)N[C@@H](Cc1cnc[nH]1)C(=O)N[C@@H](CC(N)=O)C(=O)N[C@H]1CCC[C@@H]1C(N)=O)C(C)C)C(C)C ({ACPC(1S,2S)}-VSE[X1]Q[X1]MHNLGK[X1]LNS[X1]ERV[X2]WLR[X2]KLQ[X1]VHN-{NH(1S,2S-2-CONH2-cPent)})
- fold change (FC) [1]: 234

Structure (SMILES): CC[C@H](C)[C@H](NC(=O)[C@H]1CCC[C@@H]1NC(=O)[C@H](C)NC(=O)[C@H](NC(=O)[C@H](CC(C)C)NC(=O)[C@H]1CNC[C@@H]1NC(=O)[C@H](Cc1cnc[nH]1)NC(=O)[C@H](CC(C)C)NC(=O)[C@H](Cc1ccccc1)NC(=O)[C@H]1CNC[C@@H]1NC(=O)[C@H](CCCNC(=N)N)NC(=O)[C@H](CCCNC(=N)N)NC(=O)[C@H](CCCNC(=N)N)NC(=O)[C@H]1CCC[C@@H]1NC(=O)[C@H](CC(=O)O)NC(=O)[C@H](CCC(N)=O)NC(=O)[C@@H](NC(=O)[C@H]1CCC[C@@H]1NC(=O)[C@H](CCCCN)NC(=O)CNC(=O)[C@H](CCCCN)NC(=O)[C@H](CC(=O)O)NC(=O)[C@H](Cc1cnc[nH]1)NC(=O)[C@H](CC(C)C)NC(=O)[C@H](CC(C)C)NC(=O)[C@H](CCC(N)=O)NC(=O)[C@H](Cc1cnc[nH]1)NC(=O)[C@H](CCC(=O)O)NC(=O)[C@H](CO)NC(=O)[C@@H](NC(=O)[C@H](C)N)C(C)C)[C@@H](C)CC)[C@@H](C)CC)C(=O)N[C@@H](Cc1cnc[nH]1)C(=O)N[C@H](C(=O)N[C@H]1CCC[C@@H]1C(N)=O)[C@@H](C)O
- fold change (FC) [1]: 9.4
